Entries after “also recorded” stand apart in the source; their conditions may differ.
Legend:
[1] = tested on: Human MRC-5 cell line derived from normal lung tissue; experiment: Cell growth inhibition by MTS assay (cytotoxicity); format: cell-based; details: MRC5, 72 h of incubation, triplicate
Procedure: (§1) Human MRC-5 cell line derived from normal lung tissue and human HCT-116 colorectal carcinoma were obtained from the American Type Culture Collection (ATCC, Rockville, Md.). Cell lines were cultured according to the supplier's instructions. Human HCT-116 cells were grown in Gibco McCoy's 5A supplemented with 10% fetal calf serum (FCS) and 1% glutamine. Human MRC-5 cells were grown in DMEM supplemented with 10% fetal calf serum (FCS) and 1% glutamine.
(§2) Cells were counted using a Vi-cell XR (Beckman Coulter) and their viability assessed by 0.25% trypan blue dye exclusion. They were tested for the presence of mycoplasma before experiments with the Mycoplasma PCR Detection Kit (Applied Biological Materials Inc., Canada) in accordance with the manufacturer instructions and only mycoplasma-free cells were used for further investigations.
(§3) Cell lines were maintained at 37° C. in a humidified atmosphere containing 5% CO2. Cell growth inhibition was determined by an MTS assay according to the manufacturer's instructions (Promega, Madison, Wis., USA). […] After 24 h of culture, the cells were treated with the compound CR777B of example 1 or with the withaferine at 8 different final concentrations. Each concentration was obtained from serial dilutions in culture medium starting from the stock solution. Control cells were treated with the vehicle. Experiments were performed in triplicate.
(§4) After 72 h of incubation, 20 μL of CellTiter 96® AQueous One Solution Reagent was added for 2 h before recording absorbance at 490 nm with a spectrophotometric plate reader. The dose-response curves were plotted with Graph Prism software and the IC50 values were calculated using the Graph Prism software from polynomial curves (four or five-parameter logistic equations).

[2] = tested on: human HCT-116 colorectal carcinoma; experiment: Cell growth inhibition by MTS assay (cytotoxicity); format: cell-based; details: for IC50: Homo sapiens, HCT-116, MTS assay, 72 h of incubation, triplicate, read-out: IC50 mM HCT116
Procedure: as §1, §2, §3, §4

[3] = tested on: primary cocultures of central neurons and oligodendrocytes; experiment: In vitro myelination (MS) model, A2B5 and MAG immunostaining; format: cell-based, rat; details: for conclusion: effect on OPC and OL: 1 pmol/L to 10 μmol/L
Procedure: A reproducible in vitro myelination model based on primary cocultures of central neurons and oligodendrocytes culturing in 96-well plate is used and adapted to high throughput screening.
Neurons/oligodendrocytes were cultured as previously described by Charles et al., 2000. PNAS 97 7585-7590.
Briefly, pregnant Wistar female rats of 17 days gestation were killed by cervical dislocation (Janvier Labs, France) and the foetuses removed from the uterus. The forebrains were removed and placed in ice-cold medium of Leibovitz (L15; Pan Biotech, Germany) containing 2% of Penicillin-Streptomycin (Batch 1451013, PanBiotech) and 1% of bovine serum albumin (BSA) (Batch K180713, Pan Biotech). Cortexes were dissociated by trypsinisation for 20 min at 37° C., with Trypsin EDTA 1× (Batch 7310713, PanBiotech). The reaction was stopped by the addition of Dulbecco's modified Eagle's medium (DMEM) (Batch 9710913, PanBiotech) containing DNAase I grade II at 0.1 mg/mL (Batch H131108, PanBiotech) and 10% of foetal calf serum (Batch 41Q7218K, Invitrogen, France). Cells were then mechanically dissociated by 3 passages through a 10 mL pipette. Cells were centrifuged at 180×g for 10 min at 4° C. temperature on a layer of BSA (3.5%) in L15 medium. The supernatant was discarded and cells of the pellet were re-suspended in DMEM containing 10% of FCS. […] The supernatant was discarded and cells of pellet were re-suspended in a culture medium consisting of Neurobasal (Batch 1625353, Invitrogen) supplemented with 2% of B27 (Batch 1618508, Invitrogen), 2 mM of L-glutamine (Batch 6620314, PanBiotech), 2% of PS solution, 1% of foetal calf serum (FCS) and 10 ng/mL of platelet-derived growth factor (PDGF-AA) (Batch H131205, PanBiotech).
The plates were maintained at 37° C. in a humidified incubator, in an atmosphere of air (95%)-CO2 (5%). Half of the medium was changed every 2 days with fresh medium in presence or absence of compound.
The cells were then permeabilized and non-specific sites were blocked with a solution of phosphate buffered saline (Batch 3010914, PanBiotech) containing 0.1% of saponin (Batch BCBJ8417V, Sigma) and 1% FCS for 15 min at room temperature.
On day 12, cells were incubated with Monoclonal Anti-A2B5 conjugated Alexa Fluor® 488 produced in mouse (Batch 2281669, Millipore, France) at dilution of 1/200 in PBS containing 1% FCS, 0.1% saponin, and with anti-MAP-2 antibody produced in chicken (Batch GR180541-3, AbCam; United Kingdom) at dilution of 1/1000 in PBS containing 1% FCS, 0.1% saponin for 2 h at room temperature.
On day 18, cells were incubated with Monoclonal Anti-MAG antibody produced in mouse (Batch 2301638, Millipore) at dilution of 1/400 in PBS containing 1% FCS, 0.1% saponin, and with anti-MAP-2 antibody produced in chicken at dilution of 1/1000 in PBS containing 1% FCS, 0.1% saponin for 2 h at room temperature.
The immunolabeled cultures were automatically examined with ImageXpress (Molecular Devices) equipped with a LED at ×20 magnification. For each condition, 30 pictures (representing ˜80% of the total surface of the well) per well were taken. All images were taken with the same conditions. Number of A2B5 positive cells and number of MAG positive cells were automatically analyzed by using Custom module editor (Molecular Devices). Data were expressed in percentage of control conditions (no plant extract=100%). All values were expressed as mean+/−SEM (s.e.mean) of the 6 wells. Graphs and statistical analyses are made on the different conditions (ANOVA followed by Dunnett's test when allowed, using GraphPad Prism software).

[4] = tested on: primary rat dopaminergic neurons (TH positive neurons); experiment: Neuroprotection after MPP+ exposure, TH immunostaining; format: cell-based; details: for neuroprotective effect on TH positive neurons: 1 pmol/L to 10 μmol/L
Procedure: This study investigated the neuroprotective effect of the Compound CR777B of example 1 on rat primary mesencephalic cultures following exposure to 1-methyl-4-phenyl pyridinium (MPP^+).
Rat dopaminergic neurons were cultured as described by Visanji et al., 2008 FASEB J. 2008; 22(7):2488-97. Briefly, the midbrains obtained from 15-day old rat embryos (Janvier Labs, France) were dissected under a microscope. The embryonic midbrains were removed and placed in ice-cold medium of Leibovitz (L15, Batch 4290114, Pan Biotech, Germany) containing 2% of Penicillin-Streptomycin (PS, Batch 1451013, Pan Biotech) and 1% of bovine serum albumin (BSA, Batch K030913, Pan Biotech). The ventral portion of the mesencephalic flexure, a region of the developing brain rich in dopaminergic neurons, was used for the cell preparations.
The midbrains were dissociated by trypsinisation for 20 min at 37° C. […] The cells were seeded in supplemented neurobasal medium at a density of 40 000 cells/well in 96 well-plates pre-coated with poly-L-lysine (Batch 3102256, Corning Biocoat) and maintained in a humidified incubator at 37° C. in 5% CO2/95% air atmosphere. Half of the medium was changed every 2 days with fresh medium.
On day 6 of culture, the medium was removed and fresh medium was added, without or with MPP+ at 4 μM diluted in control medium and let for 48 h. In parallel, compound CR777B and withaferin A were solved in culture medium and then pre-incubated with mesencephalic neurons 1 hour before the MPP+ application (48 h).
48 hours after intoxication, the cell culture supernatant was taken off and the dopaminergic neurons were fixed by a solution of 4% paraformaldehyde in PBS, pH=7.3 for 20 min at room temperature.
After permeabilization with 0.1% of saponin (Merck, France), cells were incubated for 2 hours with monoclonal Anti-Tyrosine Hydroxylase (TH) antibody produced in mouse at dilution of 1/10000 in PBS containing 1% FCS, 0.1% saponin, for 2 h at room temperature.
The immunolabeled cultures were automatically examined with ImageXpress (Molecular Devices, United Kingdom) equipped with a LED at ×10 magnification. […] All images were taken with the same conditions. Analysis were automatically performed by using Custom Module Editor (Molecular Devices).
Data were expressed in percentage of control conditions (no injury, no compound=100%). All values were expressed as mean+/−SEM (standard error mean) of the 6 wells with statistical analyses on the different conditions (ANOVA followed by Dunnett's test when allowed, using GraphPad Prism software).

[5] = tested on: primary motor neuron culture from rat spinal cord; experiment: Motor neuron survival after glutamate exposure (in vitro ALS model), MAP-2 immunostaining; format: cell-based; details: for protective effect on motor neurons: 1 pM to 10 μM
Procedure: The aim of this study was to study the effect of CR777B on primary motor neuron culture from rat spinal cord (SC) injured by glutamate exposure (a well validated in vitro ALS model and model of motor neuron diseases).
Rat SC motor neurons were cultured as described by Martinou et al., Neuron. […] Briefly, pregnant female rats (Wistar, Janvier labs) of 14 days gestation were killed by cervical dislocation. […] The medium was changed every day.
For each condition, 6 wells were assessed, 30 pictures per well were taken using ImageXpress (Molecular Devices) with 20× magnification, to assess motor neuron survival (MAP-2). Analysis of picture was done using Custom Module Editor (Molecular Devices). Results were expressed in terms of mean survival neuron, labeled for MAP-2. Data were expressed in percentage of control conditions (no intoxication, no glutamate=100%) in order to express the glutamate injury. All values were expressed as mean+/−SEM (s.e.mean) of the culture (n=6 wells per condition per culture). Graphs and statistical analyses are made on the different conditions (ANOVA followed by PLSD Fisher's test when allowed, using Statview software version 5.0).

[6] = tested on: primary rat cortical neurons; experiment: Neuron survival and neurite network after glutamate injury, MAP-2 immunostaining
[7] = added 1 h before MPP+ (4 μM) and let for 48 h
[8] = added 1 h before glutamate (5 μM, 20 min)
[9] = added 1 h before glutamate (40 μM, 20 min) and let for 48 h
[10] = after 12 or 18 days of incubation

CC1=C(CO)C(=O)O[C@@H]([C@@H](C)[C@H]2CCC3C4C[C@H]5O[C@]56[C@@H](O)C(SC[C@H](NC(=O)CC[C@@H](N)C(=O)O)C(=O)NCC(=O)O)CC(=O)[C@]6(C)C4CC[C@@]32C)C1 (some centres unmarked) [CR777B]
IC50 [1]: 0.0036 mM | IC50 [2]: 0.00266 mM | toxicity on the cells compared with withaferin ([2]; whatever the cell line tested (HCT116 and MRC5)): less toxic than the compound withaferin | conclusion: effect on OPC and OL [3]: significantly increase the number of OPC and OL | OPC number (A2B5 positive cells) ([3]; after 12 days of incubation): significant increase of OPC | concentration of maximal effect on OPC number (bell shape curve) ([3]; after 12 days of incubation): 100 pM | total number of OPCs at the highest doses ([3]; after 12 days of incubation, highest doses): decrease of the total number of OPCs | myelination of neurons by OL (MAG expression) ([3]; after 18 days of treatment): significantly improved the myelination of neurons by OL | number of MAG positive cells (OL) ([3]; after 18 days of treatment): increase the number of MAG positive cells | concentrations with toxic effect on TH positive neurons [4, 7]: 10 µM | neuroprotective effect on TH positive neurons [4, 7]: significant protective effect (neuron survival and preservation of neurite network) at all doses (except at the highest dose) | MN protective effect at the 2 highest doses ([5]; 2 highest doses (1 and 10 μM), glutamate 5 μM, 20 min): inactive | concentration of maximal MN protective effect (bell shape curve) ([5]; added 1 h before glutamate (5 μM, 20 min), then 48 h): 100 nM | protective effect on motor neurons [5, 8]: significant protective effect at all doses (except at the 2 highest doses) | concentration with toxicity on neurite network [6, 9]: 10 µM

N[C@@H](CCC(=O)O)C(=O)O [Glutamate, glutamate]
motor neuron death ([5]; glutamate 5 μM for 20 min): > 30% | neuronal death and neurite network loss ([6]; glutamate 40 μM, 20 min): significant neuronal death and neurite network loss

C[n+]1ccc(-c2ccccc2)cc1 [MPP+, 1-methyl-4-phenyl pyridinium]
TH positive neuron cell death ([4]; MPP+ 4 μM, 48 h): > 35%

CC1=C(CO)C(=O)O[C@@H]([C@@H](C)[C@H]2CC[C@H]3[C@@H]4C[C@H]5O[C@]56[C@@H](O)C=CC(=O)[C@]6(C)[C@H]4CC[C@]23C)C1 [Withaferin A, (4β,5β,6β,22R)-4,27-Dihydroxy-5,6:22,26-diepoxyergosta-2,24-diene-1,26-dione]
IC50 [1]: 0.00025 mM | IC50 [2]: 0.00037 mM | conclusion: effect on OPC and OL [3]: toxic for OPC and OL at all doses | number of OL [3, 10]: significant decrease of the number of OL | toxicity / OPC proliferation [3, 10]: large toxic and/or inhibition of the OPC proliferation | toxicity for TH positive neurons ([4]; MPP+ 4 μM, 48 h, highest doses): toxic for TH positive neurons at the highest doses | neuroprotective effect on TH positive neurons [4, 7]: did not show any neuroprotective effect | neuroprotective effect on TH positive neurons ([4]; added 1 h before MPP+ (4 μM) and let for 48 h, listed as withaferin A): did not show any effect | toxicity for MN ([5]; MN injured by glutamate (5 μM, 20 min)): toxic for MN injured by glutamate | protective effect on motor neurons [5, 8]: did not show a protective effect; also recorded: did not show any neuroprotective effect | protection of neurons from death [6, 9]: did not protect neurons from death

— patent US20210079035A1, “COMPOUNDS FOR TREATING NEURODEGENERATIVE DISORDERS” (ETHNODYNE, priority 2017, published 2021)
